Reference: patent US11612606B2, “8-aminoisoquinoline compounds and uses thereof” (priority 2018, dated 2023)

biological target: HPK full length, T165E S171E (Homo sapiens (Human), UniProt Q92918, S171E/T165E); experiment: HPK1-FL HTRF enzymatic assay ("HTRF"); format: biochemical; conditions: ATP 1 mM, read-out: HPK1 Ki
Method: Assay Principle: HPK-FL enzyme phosphorylates Biotin-SLP-76 substrate in the presence of ATP at […] and varying concentrations of test compound. Product is detected by FRET using Eu-anti-pSLP76 Ab and SA-XL665. Also see www.cisbio.com/HTRF for additional HTRF technology information.
Instrumentation: Echo555 compound dispenser; Agilent Bravo; Perkin Elmer Envision.
To a 384 well Proxiplate with 80 nL compound or DMSO spotted on was added 4 μl/well kinase mix. The mixture was preincubated for 30 minutes and then 4 μl/well substrate mix was added. The solution was incubated for 60 min and then 4 μl/well detection mix was added. The solution was incubated for another 60 min.
Exemplary compounds were tested in the HTRF binding assays.

HPK full length, T165E S171E, sequence (Q92918 whole entry T165E/S171E, looked up): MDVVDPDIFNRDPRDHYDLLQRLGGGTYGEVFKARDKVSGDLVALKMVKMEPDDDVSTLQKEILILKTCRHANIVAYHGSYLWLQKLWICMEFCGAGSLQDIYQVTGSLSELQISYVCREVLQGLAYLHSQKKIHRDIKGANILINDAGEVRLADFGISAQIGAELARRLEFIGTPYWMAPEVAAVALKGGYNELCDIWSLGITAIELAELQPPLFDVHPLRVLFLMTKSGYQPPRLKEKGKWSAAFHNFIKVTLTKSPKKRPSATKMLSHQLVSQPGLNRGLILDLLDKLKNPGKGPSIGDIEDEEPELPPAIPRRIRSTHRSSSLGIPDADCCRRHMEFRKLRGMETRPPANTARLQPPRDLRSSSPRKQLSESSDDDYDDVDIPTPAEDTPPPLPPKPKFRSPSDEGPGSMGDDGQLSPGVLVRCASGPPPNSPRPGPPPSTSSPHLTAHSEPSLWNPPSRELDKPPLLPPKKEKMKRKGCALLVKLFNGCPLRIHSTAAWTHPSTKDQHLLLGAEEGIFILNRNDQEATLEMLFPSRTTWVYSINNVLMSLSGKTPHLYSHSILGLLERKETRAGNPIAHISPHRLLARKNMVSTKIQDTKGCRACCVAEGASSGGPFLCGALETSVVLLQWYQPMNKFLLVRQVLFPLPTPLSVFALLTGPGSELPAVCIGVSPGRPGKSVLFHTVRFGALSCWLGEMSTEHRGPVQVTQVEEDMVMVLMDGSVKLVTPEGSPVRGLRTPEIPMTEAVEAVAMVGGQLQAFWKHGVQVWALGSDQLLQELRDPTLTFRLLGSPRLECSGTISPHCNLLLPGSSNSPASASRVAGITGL

Cc1c(-c2cc3cc(NC(=O)O[C@@H]4CCN(CC(F)F)C[C@@H]4F)ncc3c(N)c2F)cnc2c1NCCO2 (single isomer, unassigned) [Compound 566a] was tested. Which Ki did it give?
The Ki was 0.293 nM.

For Cc1c(-c2cc3cc(NC(=O)O[C@H]4CCN(CC(F)F)C[C@H]4F)ncc3c(N)c2F)cnc2c1NCCO2 (single isomer, unassigned) [Compound 566b], which Ki is on record?
The Ki was 0.149 nM.

With Cc1c(-c2cc3cc(NC(=O)O[C@H]4COC[C@@H]4C)ncc3c(N)c2F)cnc2c1NC[C@H](F)O2 (single isomer, unassigned) [Compound 567a] as the compound, how does the Ki read?
Its Ki is 0.33 nM.

How did the Ki turn out when Cc1c(-c2cc3cc(NC(=O)O[C@H]4COC[C@@H]4C)ncc3c(N)c2F)cnc2c1NC[C@@H](F)O2 (single isomer, unassigned) [Compound 567b] was run?
Its Ki is 0.119 nM.

Cc1c(-c2cc3cc(NC(=O)O[C@H]4CO[C@@H]5OCC[C@@H]54)ncc3c(N)c2F)cnc2c1NCCO2 (single isomer, unassigned) [Compound 568a] was tested. Which Ki did it give?
Its Ki is 0.185 nM.

Which Ki does the source give for Cc1c(-c2cc3cc(NC(=O)O[C@@H]4CO[C@H]5OCC[C@H]54)ncc3c(N)c2F)cnc2c1NCCO2 (single isomer, unassigned) [Compound 568b] here?
Its Ki is 0.018 nM.

For Cc1c(-c2cc3cc(NC(=O)O[C@H]4C[C@@H]([C@H](C)O)C4)ncc3c(N)c2F)cnc2c1NCCO2 (single isomer, unassigned) [Compound 573a], which Ki is on record?
The Ki was 0.015 nM.

How did the Ki turn out when Cc1c(-c2cc3cc(NC(=O)O[C@H]4C[C@H]([C@H](C)O)C4)ncc3c(N)c2F)cnc2c1NCCO2 (single isomer, unassigned) [Compound 573b] was run?
The Ki was 0.019 nM.

Cc1c(-c2cc3cc(NC(=O)O[C@H]4C[C@H]([C@@H](C)O)C4)ncc3c(N)c2F)cnc2c1NCCO2 (single isomer, unassigned) [Compound 573c] was tested. Which Ki did it give?
The Ki was 0.017 nM.

Cc1c(-c2cc3cc(NC(=O)O[C@H]4C[C@@H]([C@@H](C)O)C4)ncc3c(N)c2F)cnc2c1NCCO2 (single isomer, unassigned) [Compound 573d] was tested. Which Ki did it give?
The Ki was < 0.013 nM.

How did the Ki turn out when Cc1c(-c2cc3cc(NC(=O)O[C@@H]4Cc5ncnn5C4)ncc3c(N)c2F)cnc2c1NCCO2 (single isomer, unassigned) [Compound 578a] was run?
The Ki was 0.028 nM.

With Cc1c(-c2cc3cc(NC(=O)O[C@H]4Cc5ncnn5C4)ncc3c(N)c2F)cnc2c1NCCO2 (single isomer, unassigned) [Compound 578b] as the compound, how does the Ki read?
Its Ki is 0.15 nM.

Which Ki does the source give for Cc1c(-c2cc3cc(NC(=O)O[C@H]4CC[C@@H](O)C4)ncc3c(N)c2F)cnc2c1NCCO2 (single isomer, unassigned) [Compound 582a] here?
Its Ki is 0.02 nM.

How did the Ki turn out when Cc1c(-c2cc3cc(NC(=O)O[C@@H]4CC[C@H](O)C4)ncc3c(N)c2F)cnc2c1NCCO2 (single isomer, unassigned) [Compound 582b] was run?
Its Ki is 0.02 nM.

For CO[C@H]1COCC[C@@H]1OC(=O)Nc1cc2cc(-c3cnc4c(c3C)NCCO4)c(F)c(N)c2cn1 (single isomer, unassigned) [Compound 583a], which Ki is on record?
Its Ki is 0.12 nM.

CO[C@H]1COCC[C@H]1OC(=O)Nc1cc2cc(-c3cnc4c(c3C)NCCO4)c(F)c(N)c2cn1 (single isomer, unassigned) [Compound 583b] was tested. Which Ki did it give?
The Ki was 0.021 nM.

With CO[C@@H]1COCC[C@@H]1OC(=O)Nc1cc2cc(-c3cnc4c(c3C)NCCO4)c(F)c(N)c2cn1 (single isomer, unassigned) [Compound 583c] as the compound, how does the Ki read?
The Ki was 0.099 nM.

How did the Ki turn out when CO[C@@H]1COCC[C@H]1OC(=O)Nc1cc2cc(-c3cnc4c(c3C)NCCO4)c(F)c(N)c2cn1 (single isomer, unassigned) [Compound 583d] was run?
Its Ki is 0.72 nM.

With Cc1c(-c2cc3cc(NC(=O)O[C@H]4C[C@@H](O)C4)ncc3c(N)c2F)cnc2c1NC[C@@H]1C[C@H]21 (single isomer, unassigned) [Compound 584a] as the compound, how does the Ki read?
The Ki was 0.14 nM.

With Cc1c(-c2cc3cc(NC(=O)O[C@H]4C[C@@H](O)C4)ncc3c(N)c2F)cnc2c1NC[C@H]1C[C@@H]21 (single isomer, unassigned) [Compound 584b] as the compound, how does the Ki read?
The Ki was 2.1 nM.

Which Ki does the source give for Cc1c(-c2cc3cc(NC(=O)N[C@@H]4CCN(C)C[C@H]4F)ncc3c(N)c2F)cnc2c1NCCO2 (single isomer, unassigned) [Compound 703a] here?
Its Ki is 0.022 nM.

Cc1c(-c2cc3cc(NC(=O)N[C@H]4CCN(C)C[C@@H]4F)ncc3c(N)c2F)cnc2c1NCCO2 (single isomer, unassigned) [Compound 703b] was tested. Which Ki did it give?
Its Ki is < 0.013 nM.

Which Ki does the source give for Cc1c(-c2cc3cc(NC(=O)N[C@H]4CCN(C)C[C@H]4F)ncc3c(N)c2F)cnc2c1NCCO2 (single isomer, unassigned) [Compound 703c, (±)-1-(8-Amino-7-fluoro-6-(8-methyl-2,3-dihydro-1H-pyrido[2,3-b][1,4]oxazin-7-yl)isoquinolin-3-yl)-3-((cis)-3-fluoro-1-methylpiperidin-4-yl)urea] here?
The Ki was 0.03 nM.

How did the Ki turn out when CC(=O)N1CC[C@H](NC(=O)Nc2cc3cc(-c4cnc5c(c4C)NCCO5)c(F)c(N)c3cn2)[C@H](F)C1 (single isomer, unassigned) [Compound 710a, (±)-1-((cis)-1-Acetyl-3-fluoropiperidin-4-yl)-3-(8-amino-7-fluoro-6-(8-methyl-2,3-dihydro-1H-pyrido[2,3-b][1,4]oxazin-7-yl)isoquinolin-3-yl)urea] was run?
Its Ki is < 0.013 nM.

Which Ki does the source give for Cc1c(-c2cc3cc(NC(=O)N[C@H]4CCCOC4)ncc3c(N)c2F)cnc2c1NCCO2 (single isomer, unassigned) [Compound 711a] here?
Its Ki is < 0.013 nM.

How did the Ki turn out when Cc1c(-c2cc3cc(NC(=O)N[C@@H]4CCCOC4)ncc3c(N)c2F)cnc2c1NCCO2 (single isomer, unassigned) [Compound 711b] was run?
Its Ki is < 0.013 nM.

For Cc1c(-c2cc3cc(NC(=O)N[C@@H]4CCOC4)ncc3c(N)c2F)cnc2c1NCCO2 (single isomer, unassigned) [Compound 722a], which Ki is on record?
The Ki was < 0.013 nM.

For Cc1c(-c2cc3cc(NC(=O)N[C@H]4CCOC4)ncc3c(N)c2F)cnc2c1NCCO2 (single isomer, unassigned) [Compound 722b], which Ki is on record?
Its Ki is < 0.013 nM.

CO[C@@H]1COC[C@@H]1NC(=O)Nc1cc2cc(-c3cnc4c(c3C)NCCO4)c(F)c(N)c2cn1 (single isomer, unassigned) [Compound 723a] was tested. Which Ki did it give?
The Ki was 0.469 nM.

How did the Ki turn out when CO[C@H]1COC[C@H]1NC(=O)Nc1cc2cc(-c3cnc4c(c3C)NCCO4)c(F)c(N)c2cn1 (single isomer, unassigned) [Compound 723b] was run?
Its Ki is 0.029 nM.

Cc1c(-c2cc3cc(NC(=O)N[C@H]4COC[C@H]4F)ncc3c(N)c2F)cnc2c1NCCO2 (single isomer, unassigned) [Compound 724a] was tested. Which Ki did it give?
Its Ki is 0.019 nM.

Cc1c(-c2cc3cc(NC(=O)N[C@@H]4COC[C@@H]4F)ncc3c(N)c2F)cnc2c1NCCO2 (single isomer, unassigned) [Compound 724b] was tested. Which Ki did it give?
The Ki was 0.019 nM.

Which Ki does the source give for Cc1c(-c2cc3cc(NC(=O)N[C@@H]4CC[C@H](C#N)C4)ncc3c(N)c2F)cnc2c1NCCO2 (single isomer, unassigned) [Compound 726a] here?
The Ki was < 0.013 nM.

Cc1c(-c2cc3cc(NC(=O)N[C@H]4CC[C@@H](C#N)C4)ncc3c(N)c2F)cnc2c1NCCO2 (single isomer, unassigned) [Compound 726b] was tested. Which Ki did it give?
The Ki was 0.016 nM.

CO[C@@H]1CCC[C@@H]1NC(=O)Nc1cc2cc(-c3cnc4c(c3C)NCCO4)c(F)c(N)c2cn1 (single isomer, unassigned) [Compound 729a] was tested. Which Ki did it give?
The Ki was 1.37 nM.

Which Ki does the source give for CO[C@H]1CCC[C@H]1NC(=O)Nc1cc2cc(-c3cnc4c(c3C)NCCO4)c(F)c(N)c2cn1 (single isomer, unassigned) [Compound 729b] here?
The Ki was 0.015 nM.

For Cc1c(-c2cc3cc(NC(=O)N[C@H]4C[C@H]4C)ncc3c(N)c2F)cnc2c1NCCO2 (single isomer, unassigned) [Compound 736a], which Ki is on record?
Its Ki is < 0.013 nM.

Cc1c(-c2cc3cc(NC(=O)N[C@@H]4C[C@@H]4C)ncc3c(N)c2F)cnc2c1NCCO2 (single isomer, unassigned) [Compound 736b] was tested. Which Ki did it give?
The Ki was < 0.013 nM.

Which Ki does the source give for CO[C@@H]1COCC[C@@H]1NC(=O)Nc1cc2cc(-c3cnc4c(c3C)NCCO4)c(F)c(N)c2cn1 (single isomer, unassigned) [Compound 750a] here?
Its Ki is 0.96 nM.

How did the Ki turn out when CO[C@H]1COCC[C@H]1NC(=O)Nc1cc2cc(-c3cnc4c(c3C)NCCO4)c(F)c(N)c2cn1 (single isomer, unassigned) [Compound 750b] was run?
Its Ki is < 0.013 nM.

With Cc1c(-c2cc3cc(NC(=O)OC4CN(C)C4)ncc3c(N)c2F)cnc2c1NCCO2 [Compound 402, 1-Methylazetidin-3-yl (8-amino-7-fluoro-6-(8-methyl-2,3-dihydro-1H-pyrido[2,3-b][1,4]oxazin-7-yl)isoquinolin-3-yl)carbamate] as the compound, how does the Ki read?
Its Ki is 0.11 nM.

With Cc1c(-c2cc3cc(NC(=O)OC4CCNCC4)ncc3c(N)c2F)cnc2c1NCCO2 [Compound 404, Piperidin-4-yl (8-amino-7-fluoro-6-(8-methyl-2,3-dihydro-1H-pyrido[2,3-b][1,4]oxazin-7-yl)isoquinolin-3-yl)carbamate] as the compound, how does the Ki read?
Its Ki is 0.03 nM.

How did the Ki turn out when Cc1c(-c2cc3cc(NC(=O)OC4CC5COCC(C4)N5C)ncc3c(N)c2F)cnc2c1NCCO2 (stereo not shown) [Compound 406, 9-Methyl-3-oxa-9-azabicyclo[3.3.1]nonan-7-yl (8-amino-7-fluoro-6-(8-methyl-2,3-dihydro-1H-pyrido[2,3-b][1,4]oxazin-7-yl)isoquinolin-3-yl)carbamate] was run?
The Ki was 0.4 nM.

same assay, conditions: HPK1 Ki, ATP 1 mM

For Cc1c(-c2cc3cc(NC(=O)N[C@H]4CCOC[C@H]4F)ncc3c(N)c2F)cnc2c1NCCO2 (single isomer, unassigned) [Compound 747a], which Ki is on record?
Its Ki is < 0.013 nM.

How did the Ki turn out when Cc1c(-c2cc3cc(NC(=O)N[C@@H]4CCOC[C@@H]4F)ncc3c(N)c2F)cnc2c1NCCO2 (single isomer, unassigned) [Compound 747b] was run?
Its Ki is < 0.013 nM.

For Cc1c(-c2cc3cc(NC(=O)O[C@H]4CCOC4)ncc3c(N)c2F)cnc2c1NCCO2 [Compound 403b, (S)-Tetrahydrofuran-3-yl (8-amino-7-fluoro-6-(8-methyl-2,3-dihydro-1H-pyrido[2,3-b][1,4]oxazin-7-yl)isoquinolin-3-yl)carbamate], which Ki is on record?
Its Ki is 0.064 nM.
